Assay results as given in publication PMC12018770, “DEAD‐Box Helicase 6 Blockade in Brain‐Derived Aβ Oligomers From Alzheimer's Disease Patients Attenuates Neurotoxicity” (MedComm, 2025).
“Also recorded” adds a separate entry of the source.

Experiments:
GST‐DDX6 = experiment: GST pulldown with GST‐DDX6; assay type: binding; conditions: 150 µg GST‐DDX6, 300 µg recombinant Aβ oligomers or negative control protein, overnight; n = 3
Experimental: We conducted a series of in vitro experiments to investigate the mechanism by which DDX6 blockade affects Aβ oligomer neurotoxicity.
In accordance with the protocol provided in the GST pulldown kit (#21516; Thermo Fisher Scientific), 150 µg of GST‐DDX6 protein were rotated with 50 µL of glutathione agarose resin at 4°C for 3 h. The resin was then incubated overnight with 300 µg of recombinant Aβ oligomers or a negative control protein, washed with pH 8.0 glutathione elution buffer, and validated by dot blotting.

[1] = tested on: human‐derived Aβ oligomers; experiment: Co-immunoprecipitation / Western blotting of protein-Aβ oligomer interaction in AD brain extracts; assay type: binding; conditions: IgG isotype control
Excerpt: After rigorous data analysis with SAINTexpress, four proteins (DDX6, DSP, JUP, and HRNR) were identified as potential Aβ oligomer‐binding partners. To validate these findings, we selected DSP and DDX6 as positive controls for co‐IP analysis; tau proteins were used as negative controls. Input samples, IP, co‐IP extracts, and IgG controls were adjusted to ensure equal amounts of protein for comparison. […] The IP enrichment effect was substantial for Aβ oligomers, DDX6, DSP, and tau proteins. In the co‐IP extracts for DDX6 and DSP, Aβ oligomers were detected at approximately 55 and 30 kDa, respectively (indicated by “ [drawing 1] ”). […] Isotype control IgG was used to exclude nonspecific binding (Figure 2A).
A Co‐IP kit (Thermo Fisher Scientific; #26149, USA) was used for the assay. Antibodies (2 µg) were crosslinked to a reinforced AminoLink coupling resin (20 µL of beads) and immobilized on a Pierce spin column at room temperature. Protein extracts (1 mg) were added to the spin column and incubated overnight at 4°C with rotation. The spin column was then transferred to a new collection tube, and 60 µL of elution buffer (pH 2.8, containing tertiary amine) was added. The column was centrifuged, and the eluate was analyzed to detect the presence of the target protein.
Protein concentrations in the co‐IP extracts were measured using a bicinchoninic acid assay (#23225, Thermo Fisher Scientific, USA). For each sample, 20 µL of protein was loaded, with the following amounts of human‐derived Aβ oligomers (AD1–AD6) used: 1.8 µg, 2.0 µg, 1.9 µg, 1.6 µg, 2.0 µg, and 1.8 µg, respectively. Equivalent amounts of co‐IP extracts were loaded into the remaining lanes. A 5× loading buffer was added to the protein samples to achieve a final concentration of 1×, and the samples were incubated at 95°C for 5 min [44]. […]
B. The PVDF membrane was probed with the Aβ oligomer antibody (A11), indicating enrichment of Aβ oligomers (post-IP) with bands observed at 55 kDa and 30 kDa. Aβ oligomers were detected in the co-IP products of DDX6 (indicated by “✸”). […]

Aβ oligomers in AD brain = experiment: IHC colocalization with Aβ oligomers in AD brain sections; parameters: species or system human; conditions: AD7–AD10, n = 4; fluorescence scan over 120 µm
Excerpt: To further validate the binding interactions between Aβ oligomers and the four proteins, we performed immunohistochemistry (IHC) on brain sections from four AD patients (AD7–AD10). We analyzed the colocalization of Aβ oligomers (red) with DDX6, JUP, HRNR, and DSP (all green), as well as 4',6‐diamidino‐2‐phenylindole (DAPI)‐stained nuclei (blue). […] We also performed fluorescence intensity scanning from left to right across stained brain tissue slices (120 µm). […] The combined results from co‐IP and IHC confirm that these four proteins can bind to Aβ oligomers.
Sections were dewaxed, subjected to antigen retrieval, and blocked. They were then incubated with primary antibody (1:500) overnight at 4°C, followed by secondary antibody (1:200). Nuclei were stained with DAPI (Beyotime; C1002, Shanghai, China) for 10 min in the dark.

Aβ fibrillar plaques = experiment: ThT‐binding assay, fluorescence microscopy of fibrillar plaques; assay type: biochemical; conditions: DDX6 10 µM, Aβ42 20 µM, Aβ42 oligomers 5 µM; n = 3
[2] = tested on: human‐derived Aβ oligomers; experiment: AP-MS with SAINTexpress scoring of binding to human‐derived Aβ oligomers; conditions: score 0 to 1; criteria SAINT score > 0.5 and fold change ≥ 2; AD1–AD6, n = 6
Excerpt: Not all identified proteins bind to Aβ oligomers. Therefore, we used the SAINTexpress statistical method to screen for proteins most likely to interact with human‐derived Aβ oligomers. SAINTexpress assigns probability scores to factors interacting with target proteins, providing a value between 0 and 1, where higher scores indicate a greater likelihood of interaction with Aβ oligomers. Based on the analyzed results, we plotted the fold change on the x‐axis and SAINT scores on the y‐axis, with each point representing a protein. Proteins meeting the criteria of a SAINT score > 0.5 and fold change ≥ 2 were considered the most likely to bind Aβ oligomers (highlighted in red). Through rigorous analysis, we identified four proteins as binding partners (Figure 1C): DDX6 (SAINT score = 0.5783), DSP (SAINT score = 0.6608), JUP (SAINT score = 0.5846), and HRNR (SAINT score = 0.5246).
An aliquot of each peptide mixture was loaded onto a trap column (in‐house‐fabricated column packed with a reversed‐phase ReproSil‐Pur C18‐AQ resin, 150 µm × 15 cm, C18, 3 µm, 100 Å, Dr. Maisch GmbH, Germany) connected to an analytical column (EASY‐Spray column, […] × 75 µm ID, PepMap RSLC C18, 2 µm, 100 Å, Thermo Scientific, USA) using the autosampler of an EASY‐nLC 1200 HPLC system (Thermo Fisher Scientific). The peptides were eluted using a gradient (solvent A: 0.1% formic acid in water; solvent B: 80% acetonitrile/0.1% formic acid in water; Sigma, Germany) directly into a Q Exactive Hybrid Quadrupole‐Orbitrap mass spectrometer (Thermo Fisher Scientific). The gradient program was as follows: 4%–8% solvent B over 2 min, 8%–28% solvent B over 43 min, 28%–40% solvent B over 10 min, 40%–95% solvent B over 1 min, and 95% solvent B for 10 min. The following mass spectrometry parameters were used: spray voltage, 2.2 kV; capillary temperature, 270°C; MS resolution, 70,000 at 400 m/z; MS precursor m/z range, 300.0–1800.0 m/z; activation type, high‐energy collision dissociation; normalized collision energy, 28.0; activation time, […]; and data‐dependent MS/MS, top 20 most intense peptide ions selected based on the preview scan in the Orbitrap.
The raw MS files (Figure S5) were analyzed and searched against species‐specific protein databases using MaxQuant (v1.6.2.10). The following parameters were applied: maximum missed cleavages, 2; precursor ion mass tolerance, 20 ppm; and MS/MS tolerance, 20 ppm. Peptides and proteins were filtered to achieve a false discovery rate of < 1% using a target‐decoy database strategy, and only proteins with at least two unique peptides were reported. […] SAINT is a probabilistic method for scoring protein–protein interactions in AP‐MS experiments, enabling the identification of proteins most likely to interact with target proteins. […]

| Substance | pulldown by GST‐DDX6 (GST‐DDX6) | binding to Aβ oligomers by co‐IP [1] | colocalization with Aβ oligomers (Aβ oligomers in AD brain) | fluorescence intensity by microscopy (in words) (Aβ fibrillar plaques) | SAINT score [2] |
| --- | --- | --- | --- | --- | --- |
| Aβ42 oligomers: oligomers prepared from Aβ42 peptide (Abcam #ab120301), PBS, 72 h at 4°C | successfully pulled down | – | – | – | – |
| DEAD‐box helicase 6 [DDX6] | – | DDX6 and DSP were also detected in Aβ oligomer co‐IP extracts; also recorded: DDX6 was detected in the co-IP products of Aβ oligomers | strong colocalization | showed no effects on fluorescence intensity | 0.5783 |
